{"source": "patent US20090148886A1", "about": "“METHODS OF IDENTIFYING COMPOUNDS THAT DECREASE INTRAOCULAR PRESSURE” (The Arizona Board of Regents on behalf of the University of …, priority 2007, published 2009)", "system": "C57BL/6 mice and Best2^+/+, Best2^+/−, Best2^−/− littermates", "assay": "IOP measurement by cannulation of the anterior chamber in control and drug-treated Best2 mice", "format": "in vivo, mouse", "conditions": "for Mean IOP: 10 μL of solution topically to each eye 2 hours before cannulation, mean ± SE", "experimental": "IOP Measurements: IOP was measured in the mice by cannulation of the anterior chamber with Avertin® anesthesia (300 mg/kg injected intraperitoneally) as described in, e.g., Husain et al., Exp. Eye Res. 83:1453-1458, 2006; John et al., Invest. Ophthalmol. Vis. Sci. 38:249-253, 1997; Aihara et al., Invest. Ophthalmol. Vis. Sci. 44:5168-5173, 2003. In brief, the anterior chamber was cannulated with a borosilicate glass microneedle (1-mm outer diameter with a 50-μm inner diameter tip, beveled to 45°; Humagen, Charlottesville, Va.) filled with Hanks' balanced salt solution (HBSS) and connected to a pressure transducer (BLPR; World Precision Instruments, Sarasota, Fla.). The signal was amplified (Bridge8 amplifier; World Precision Instruments), converted from analog to digital (iWorx® model 108 converter; CB Sciences, Dover, N.H.), and recorded (LabScribe software ver. 1.6; CB Sciences, Dover, N.H.). IOP was recorded for a period of >90 seconds, and the IOP value determined from the average of each recording. […] All measurements were performed between 2 and 6 PM to avoid diurnal pressure variations. The apparatus was calibrated using a fluid reservoir the height of which could be adjusted to generate a series of known pressures. For experiments using timolol (0.5% solution; Bausch & Lomb, Tampa, Fla.) or brinzolamide (Azopt® 1% solution; Alcon, Fort Worth, Tex.), 10 μL of solution was administrated topically to each eye 2 hours before cannulation."}
{"smiles": "CC(C)(C)NC[C@H](O)COc1nsnc1N1CCOCC1", "note": "[Timolol, timolol]", "values": [{"measurement": "Mean IOP", "setting": "Best2^+/+ mice", "result": "9.57 ± 0.22", "unit": "mm Hg"}, {"measurement": "Mean IOP", "setting": "Best2^+/− mice", "result": "9.48 ± 0.12", "unit": "mm Hg"}, {"measurement": "Effect on IOP (in words)", "setting": "Best2^−/− mice", "result": "less effective in lowering IOP"}, {"measurement": "Mean IOP", "setting": "Best2^−/− mice", "result": "9.49 ± 0.18", "unit": "mm Hg"}, {"measurement": "Effect on IOP (in words)", "setting": "C57BL/6 and Best2^+/+ mice, P<0.005", "result": "lowered IOP significantly"}, {"measurement": "Mean IOP", "setting": "C57BL/6 mice", "result": "10.53 ± 0.29", "unit": "mm Hg"}]}
{"smiles": "CCN[C@H]1CN(CCCOC)S(=O)(=O)c2sc(S(N)(=O)=O)cc21", "note": "[Brinzolamide, brinzolamide]", "values": [{"measurement": "IOP after treatment compared with treated C57BL/6 or Best2^+/+ mice", "setting": "Best2^+/+ (so in the source) and Best2^−/− mice, lower than in C57BL/6 or Best2^+/+ mice", "result": "approximately 1 mm Hg"}, {"measurement": "Mean IOP", "setting": "Best2^+/+ mice", "result": "10.08 ± 0.33", "unit": "mm Hg"}, {"measurement": "Mean IOP", "setting": "Best2^+/− mice", "result": "9.56 ± 0.37", "unit": "mm Hg"}, {"measurement": "Mean IOP", "setting": "Best2^−/− mice", "result": "9.34 ± 0.34", "unit": "mm Hg"}, {"measurement": "Mean IOP", "setting": "C57BL/6 mice", "result": "10.51 ± 0.51", "unit": "mm Hg"}, {"measurement": "Effect on IOP (in words)", "setting": "all mice tested", "result": "effective in lowering IOP in all mice tested"}]}
